Data as given in US20060293223A1 (Eli Lilly and Company Patent Division, priority 2003, published 2006).
Positions of bridges follow the written chain, without caps; N, C: chain ends. Non-standard residues stand in square brackets, D forms with d. No end group written: not given here. NMeY = CN[C@@H](Cc1ccc(O)cc1)C(=O)O; hCys = N[C@@H](CCS)C(=O)O

Tested on: MC1/MC4
Details: ratio MC1/MC4
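Further: ratio of EC50 values obtained at MC1 versus MC4 receptors, with MC1 potency measured by luciferase reporter activity in stably transfected cells expressing human MC1.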

Substance | MC1/MC4 selectivity
Arg-cyclo[Cys-Glu-His-D-Phe-Arg-Trp-Cys]-OH [Compound 45] | 30.47
Arg-cyclo[Cys-His-(4-Cl-D-Phe)-Arg-Trp-hCys]-NH2 [Compound 188] | 29.56
Arg-cyclo[Cys-His-(4-F-D-Phe)-Arg-Trp-hCys]-NH2 [Compound 187] | 20.76
Arg-cyclo[hCys-(1-Me-D-His)-D-Phe-Arg-Trp-Cys]-NH2 [Compound 157] | 17.60
Arg-cyclo[hCys-(1-Me-His)-D-Phe-Arg-Trp-Cys]-NH2 [Compound 156] | 158.41
Arg-cyclo[hCys-His-D-Phe-Arg-Trp-hCys]-NH2 [Compound 194] | 10.61
N-(2-naphthalenesulfonyl)-D-Arg-cyclo[Cys-Glu-His-D-Phe-Arg-Trp-Cys]-NH2 [Compound 64] | 4.12
N-(2-naphthalenesulfonyl)-cyclo[hCys-His-D-Phe-Arg-Trp-Cys]-NH2 [Compound 151] | 14.00
N-(2-naphthalenesulfonylamino-4-oxo-butyryl)-D-Arg-cyclo[Cys-Glu-His-D-Phe-Arg-Trp-Cys]-NH2 [Compound 65] | 2.70
N-(4-phenylsulfonamido-4-oxo-butyryl)-cyclo[hCys-His-D-Phe-Arg-Trp-Cys]-NH2 [Compound 152] | 7.73
N-butyryl-cyclo[Cys-Glu-His-D-Phe-Arg-Trp-Cys]-NH2 [Compound 38] | 28.16
N-cyclobutanecarbonyl-cyclo[hCys-His-D-Phe-Arg-Trp-Cys]-NH2 [Compound 142] | 35.55
N-cyclohexanecarbonyl-cyclo[hCys-His-D-Phe-Arg-Trp-Cys]-NH2 [Compound 144] | 14.85
N-cyclohexanecarbonyl-cyclo[hCys-His-D-Phe-Arg-Trp-penicillamine]-NH2 [Compound 172] | 26.45
N-cyclopentanecarbonyl-cyclo[hCys-His-D-Phe-Arg-Trp-Cys]-NH2 [Compound 143] | 19.27
N-cyclopentanecarbonyl-cyclo[hCys-His-D-Phe-Arg-Trp-penicillamine]-NH2 [Compound 171] | 75.11
N-cyclopropanecarbonyl-cyclo[hCys-His-D-Phe-Arg-Trp-Cys]-NH2 [Compound 141] | 83.00
N-glutaryl-Tyr-Arg-cyclo[Cys-Glu-His-D-Phe-Arg-Trp-Cys]-NH2 [Compound 75] | 6.00
N-glutaryl-Tyr-Arg-cyclo[Cys-Glu-His-D-Phe-Arg-Trp-Cys]-OH [Compound 76] | 6.00
N-hexanoyl-cyclo[hCys-His-D-Phe-Arg-Trp-Cys]-NH2 [Compound 145] | 3.82
N-hexanoyl-cyclo[hCys-His-D-Phe-Arg-Trp-penicillamine]-NH2 [Compound 170] | 9.00
N-phenylsulfonyl-cyclo[hCys-His-D-Phe-Arg-Trp-Cys]-NH2 [Compound 150] | 12.88
N-propionyl-cyclo[Cys-Glu-His-D-Phe-Arg-Trp-Cys]-NH2 [Compound 37] | 36.99
N-succinyl-Tyr-Arg-cyclo[Cys-Glu-His-D-Phe-Arg-Trp-Cys]-NH2 [Compound 74] | 12.00

Substance | MC1/MC4 selectivity
N-succinyl-Tyr-Arg-cyclo[Cys-Glu-His-D-Phe-Arg-Trp-Cys]-OH [Compound 131] | 7.00
N-valeryl-cyclo[Cys-Glu-His-D-Phe-Arg-Trp-Cys]-NH2 [Compound 39] | 19.67
RCH[dF]RW[hCys]-NH2 (disulfide 2-7) [Compound 186] | 11.44
R[hCys]H[dF]RWC-NH2 (disulfide 2-7) [Compound 153] | 41.81
R[hCys]H[dF]RWC-OH (disulfide 2-7) [Compound 155] | 55.84
Tyr-Arg-cyclo[Cys-Glu-His-D-Phe-Arg-Trp-Cys]-NH2 [Compound 68] | 14.08
Tyr-Arg-cyclo[Cys-Glu-His-D-Phe-Arg-Trp-Cys]-NH—(CH2)6—NH2 [Compound 70] | 2.00
Tyr-Arg-cyclo[Cys-Glu-His-D-Phe-Arg-Trp-Cys]-OH [Compound 69] | 18.38
YRCEH[dF]RWCE-NH2 (disulfide 3-9) [Compound 71] | 5.13
YRCGH[dF]RWC-NH2 (disulfide 3-9) [Compound 11] | 11.00
YR[hCys]H[dF]RWC-NH2 (disulfide 3-8) [Compound 162] | 30.07
YR[hCys]H[dF]RWC-OH (disulfide 3-8) [Compound 163] | 19.46
[NMeY]RCMH[dF]RWC-NH2 (disulfide 3-9) [Compound 17] | 10.42
[dR][hCys]H[dF]RWC-NH2 (disulfide 2-7) [Compound 154] | 36.00
cyclo[3-thiopropionyl-His-D-Phe-Arg-Trp-hCys]-NH2 [Compound 179] | 5.35
cyclo[Cys-Glu-His-D-Phe-Arg-Trp-Cys]-NH2 [Compound 29] | 15.00
cyclo[Cys-His-(4-Cl-D-Phe)-Arg-Trp-hCys]-NH2 [Compound 182] | 185.74
cyclo[Cys-His-(4-F-D-Phe)-Arg-Trp-hCys]-NH2 [Compound 181] | 45.25
cyclo[Cys-His-D-Phe-Arg-Trp-hCys]-NH2 [Compound 180] | 30.38
cyclo[hCys-His-(4-Cl-D-Phe)-Arg-Trp-Cys]-NH2 [Compound 135] | 120.27
cyclo[hCys-His-(4-F-D-Phe)-Arg-Trp-Cys]-NH2 [Compound 134] | 68.42
cyclo[hCys-His-D-Phe-Arg-Trp-Cys]-NH2 [Compound 132] | 77.32
cyclo[hCys-His-D-Phe-Arg-Trp-Cys]-OH [Compound 133] | 31.29
phenylsulfonyl-Gly-cyclo[hCys-His-D-Phe-Arg-Trp-Cys]-NH2 [Compound 161] | 2.18
